By MIC is commonly meant the least concentration at which growth counts as inhibited. A lower MIC goes with inhibition by little substance.

The record followed here is US11279735B2, “Cyclic peptide antibiotics” (priority 2017, dated 2022).

The test concerns Escherichia coli (E. coli) strain CFT073 ATCC 700928. The format is cell-based. The essentials: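 MICs were read after 22 h at 35 °C, with bacteria added to a final OD600 of 0.0005. Compounds were serially diluted 2-fold over ten concentrations from a top of 64, 4, 0.5 or 0.13 μg/mL (protocols 1–4). Medium was cation-adjusted Mueller Hinton II broth plus 0.002% Tween-80, following CLSI M07-A8.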

Values after ≈ are worked out from the molar mass of the structure shown. Like-named read-outs stand apart in the source and are kept apart here. *1 amine or outer side, *2 acyl side, *3 side chain or, on linkers, in order; H or OH if unused. Where a SMILES comes first, the peptide text is derived from it. [ ]: non-standard residue; d: D form. X18 = CCCCCC[C@@H](OCCN[*:1])[C@@H](Cc1ccc(C)cc1)C(=O)[*:2]; X14 = CCCCCC[C@@H](OCCN[*:1])[C@@H](C)C(=O)[*:2]; aIle = CC[C@@H](C)[C@H](N)C(=O)O; aThr = C[C@H](O)[C@H](N)C(=O)O; NMeL = CN[C@@H](CC(C)C)C(=O)O; Chg = N[C@H](C(=O)O)C1CCCCC1; Dap = NC[C@H](N)C(=O)O

Under “E. coli CFT073 ATCC 700928, Mueller Hinton II cation adjusted Broth with 0.002% v/v Tween-80, 35° C. for 22 hours, lowest concentration that completely prevented bacterial growth”, `C=CCCCC[C@H]1OC(=O)CNC(=O)[C@H]([C@H](C)O)NC(=O)[C@H](CN)NC(=O)[C@H](C2CCCCC2)NC(=O)[C@H](CC(C)C)N(C)C(=O)[C@@H]1C` [Example 105, (6S,9S,12S,15S,18R,19R)-9-(aminomethyl)-12-cyclohexyl-19-hex-5-enyl-15-isobutyl-16,18-dimethyl-6-[(1S)-1-hydroxyethyl]-1-oxa-4,7,10,13,16-pentazacyclononadecane-2,5,8,11,14,17-hexone] showed an MIC of 5.2 µM (≈ 3.53 µg/mL).

As to `CCCCCC[C@H]1OC(=O)CNC(=O)[C@H]([C@H](C)O)NC(=O)[C@H](CN)NC(=O)[C@H](C2CCCCC2)NC(=O)[C@H](CC(C)C)N(C)C(=O)[C@@H]1CCOc1ccc(C)cc1` [Example 106, (6S,9S,12S,15S,18R,19R)-9-(aminomethyl)-12-cyclohexyl-19-hexyl-15-isobutyl-16-methyl-18-[2-(4-methylphenoxy)ethyl]-6-[(1S)-1-hydroxyethyl]-1-oxa-4,7,10,13,16-pentazacyclononadecane-2,5,8,11,14,17-hexone], for the setting “ATCC 700928, 22 h”, the MIC is 6.3 µM (≈ 5.05 µg/mL).

In turn, `CC[C@@H](C)[C@@H]1NC(=O)[C@H](CC(C)C)N(C)C(=O)[C@H](C)[C@@H](CCCCCC(F)(F)F)OC(=O)CNC(=O)[C@H]([C@H](C)O)NC(=O)[C@H](CN)NC1=O` [Example 107, (6S,9S,12S,15S,18R,19R)-9-(aminomethyl)-15-isobutyl-16,18-dimethyl-6-[(1S)-1-hydroxyethyl]-12-[(1R)-1-methylpropyl]-19-(6,6,6-trifluorohexyl)-1-oxa-4,7,10,13,16-pentazacyclononadecane-2,5,8,11,14,17-hexone] gave an MIC (ATCC 700928, 22 h) of 25 µM (≈ 17.7 µg/mL).

Consider `CCCCCC[C@H]1OC(=O)CNC(=O)[C@H]([C@H](C)O)NC(=O)[C@H](CN)NC(=O)[C@H](C2CCCCC2)NC(=O)[C@H](CC(C)C)N(C)C(=O)[C@@H]1CCc1ccc(-c2ccccc2)cc1` [Example 108, (6S,9S,12S,15S,18R,19R)-9-(aminomethyl)-12-cyclohexyl-19-hexyl-15-isobutyl-16-methyl-18-[2-(4-phenylphenyl)ethyl]-6-[(1S)-1-hydroxyethyl]-1-oxa-4,7,10,13,16-pentazacyclononadecane-2,5,8,11,14,17-hexone], for which, where the note is “ATCC 700928, 22 h”, the minimum inhibitory concentration (MIC) worked out at 35 µM (≈ 29.6 µg/mL).

Turning to `CCCC[C@H]1OC(=O)CNC(=O)[C@H]([C@H](C)O)NC(=O)[C@H](CN)NC(=O)[C@H](C2CCCCC2)NC(=O)[C@H](CC(C)C)N(C)C(=O)[C@@H]1Cc1ccc(C)cc1` [Example 109, (6S,9S,12S,15S,18R,19R)-9-(aminomethyl)-19-butyl-12-cyclohexyl-15-isobutyl-16-methyl-18-(p-tolylmethyl)-6-[(1S)-1-hydroxyethyl]-1-oxa-4,7,10,13,16-pentazacyclononadecane-2,5,8,11,14,17-hexone], the MIC (ATCC 700928, 22 h) worked out at 25 µM (≈ 18.6 µg/mL).

The compound `CCCCCC[C@H]1OCCNC(=O)[C@H](CO)NC(=O)[C@H](CN)NC(=O)[C@H]([C@H](C)CC)NC(=O)[C@H](CC(C)C)N(C)C(=O)[C@@H]1Cc1ccc(C)cc1` [Example 110, (6S,9S,12S,15S,18R,19R)-9-(aminomethyl)-19-hexyl-6-(hydroxymethyl)-15-isobutyl-16-methyl-18-(p-tolylmethyl)-12-[(1R)-1-methylpropyl]-1-oxa-4,7,10,13,16-pentazacyclononadecane-5,8,11,14,17-pentone] (cyclo([Dap]S[X18][NMeL][aIle])) came in with an MIC (ATCC 700928, 22 h) of 25 µM (≈ 17.9 µg/mL).

As for `CCCCCC[C@H]1OC(=O)CNC(=O)[C@H]([C@H](C)O)NC(=O)[C@H](CN)NC(=O)[C@H](C2CCCCC2)NC(=O)[C@H](CC)N(C)C(=O)[C@@H]1C` [Example 111, (6S,9S,12S,15S,18R,19R)-9-(aminomethyl)-12-cyclohexyl-15-ethyl-19-hexyl-16,18-dimethyl-6-[(1S)-1-hydroxyethyl]-1-oxa-4,7,10,13,16-pentazacyclononadecane-2,5,8,11,14,17-hexone], under “ATCC 700928, 22 h”, the MIC was 8.8 µM (≈ 5.74 µg/mL).

Under “ATCC 700928, 22 h”, `Cc1ccc(C[C@H]2C(=O)N(C)[C@@H](CC(C)C)C(=O)N[C@@H](C3CCCCC3)C(=O)N[C@@H](CN)C(=O)N[C@@H]([C@H](C)O)C(=O)NCC(=O)O[C@@H]2CCC(F)(F)F)cc1` [Example 112, (6S,9S,12S,15S,18R,19R)-9-(aminomethyl)-12-cyclohexyl-15-isobutyl-16-methyl-18-(p-tolylmethyl)-6-[(1S)-1-hydroxyethyl]-19-(3,3,3-trifluoropropyl)-1-oxa-4,7,10,13,16-pentazacyclononadecane-2,5,8,11,14,17-hexone] registered an MIC of 71 µM (≈ 55.6 µg/mL).

In turn, `CCCCCC[C@H]1OCCNC(=O)[C@H](CO)NC(=O)[C@H](CN)NC(=O)[C@H]([C@H](C)CC)NC(=O)[C@H](CC(C)C)N(C)C(=O)[C@@H]1C` [Example 113, (6S,9S,12S,15S,18R,19R)-9-(aminomethyl)-19-hexyl-6-(hydroxymethyl)-15-isobutyl-16,18-dimethyl-12-[(1R)-1-methylpropyl]-1-oxa-4,7,10,13,16-pentazacyclononadecane-5,8,11,14,17-pentone] (cyclo([Dap]S[X14][NMeL][aIle])) came in with an MIC (ATCC 700928, 22 h) of 50 µM (≈ 31.3 µg/mL).

Under “ATCC 700928, 22 h”, `CC(C)C[C@H]1C(=O)N[C@@H](C2CCCCC2)C(=O)N[C@@H](CN)C(=O)N[C@@H]([C@H](C)O)C(=O)NCC(=O)O[C@H](CCCCCCC(C)(C)O)[C@@H](C)C(=O)N1C` [Example 114, (6S,9S,12S,15S,18R,19R)-9-(aminomethyl)-12-cyclohexyl-19-(7-hydroxy-7-methyl-octyl)-15-isobutyl-16,18-dimethyl-6-[(1S)-1-hydroxyethyl]-1-oxa-4,7,10,13,16-pentazacyclononadecane-2,5,8,11,14,17-hexone] came in with a minimum inhibitory concentration (MIC) of 15 µM (≈ 11.1 µg/mL).

Regarding `CCCCCC[C@H]1OCCNC(=O)[C@H]([C@H](C)O)NC(=O)[C@H](CN)NC(=O)[C@H](C2CCCCC2)NC(=O)[C@H](CC(C)C)N(C)C(=O)[C@@H]1C` [Example 115, (6S,9S,12S,15S,18R,19R)-9-(aminomethyl)-12-cyclohexyl-19-hexyl-15-isobutyl-16,18-dimethyl-6-[(1S)-1-hydroxyethyl]-1-oxa-4,7,10,13,16-pentazacyclononadecane-5,8,11,14,17-pentone] (cyclo([Chg][Dap][aThr][X14][NMeL])), the minimal inhibitory concentration (MIC) (ATCC 700928, 22 h) turned out to be 8.7 µM (≈ 5.8 µg/mL).

The compound `CCCCCC[C@H]1OC(=O)CNC(=O)[C@H](CNC(N)=O)NC(=O)[C@H](CN)NC(=O)[C@H](C2CCCCC2)NC(=O)[C@H](CC(C)C)N(C)C(=O)[C@@H]1C` [Example 116, [(6S,9S,12S,15S,18R,19R)-9-(aminomethyl)-12-cyclohexyl-19-hexyl-15-isobutyl-16,18-dimethyl-2,5,8,11,14,17-hexaoxo-1-oxa-4,7,10,13,16-pentazacyclononadec-6-yl]methylurea] came in with an MIC (ATCC 700928, 22 h) of 50 µM (≈ 35.4 µg/mL).

For the setting “ATCC 700928, 22 h”, `CC(C)C[C@H]1C(=O)N[C@@H](C2CCCCC2)C(=O)N[C@@H](CN)C(=O)N[C@@H]([C@H](C)O)C(=O)NCC(=O)O[C@H](CCCCC(F)CF)[C@@H](C)C(=O)N1C` (stereo partly drawn) [Example 117, (6S,9S,12S,15S,18R,19R)-9-(aminomethyl)-12-cyclohexyl-19-(5,6-difluorohexyl)-15-isobutyl-16,18-dimethyl-6-[(1S)-1-hydroxyethyl]-1-oxa-4,7,10,13,16-pentazacyclononadecane-2,5,8,11,14,17-hexone] had an MIC of 25 µM (≈ 17.9 µg/mL).

`CCCCCC[C@H]1OC(=O)CNC(=O)[C@H]([C@H](C)O)NC(=O)[C@H](CO)NC(=O)[C@H](C2CCCCC2)NC(=O)[C@H](CC(C)C)N(C)C(=O)[C@@H]1C` [Example 118, (6S,9S,12S,15S,18R,19R)-12-cyclohexyl-19-hexyl-9-(hydroxymethyl)-15-isobutyl-16,18-dimethyl-6-[(1S)-1-hydroxyethyl]-1-oxa-4,7,10,13,16-pentazacyclononadecane-2,5,8,11,14,17-hexone]: the MIC (ATCC 700928, 22 h) is 4.4 µM (≈ 3 µg/mL).

In turn, `CCCCCC[C@H]1OC(=O)CNC(=O)[C@H]([C@H](C)O)NC(=O)[C@H](CN)NC(=O)[C@H](C2CCCCC2)NC(=O)[C@H](CC(C)C)N(C)C(=O)[C@@H]1Cc1cccc(C)c1` [Example 119, (6S,9S,12S,15S,18R,19R)-9-(aminomethyl)-12-cyclohexyl-19-hexyl-15-isobutyl-16-methyl-18-(m-tolylmethyl)-6-[(1S)-1-hydroxyethyl]-1-oxa-4,7,10,13,16-pentazacyclononadecane-2,5,8,11,14,17-hexone] came in with a minimal inhibitory concentration (MIC) (ATCC 700928, 22 h) of 3.1 µM (≈ 2.39 µg/mL).

`CCCCCC[C@H]1OC(=O)CNC(=O)[C@H]([C@H](C)O)NC(=O)[C@H](CN)NC(=O)[C@H](C2CCCCC2)NC(=O)[C@H](CC(C)C)N(C)C(=O)[C@@H]1Cc1ccccc1C` [Example 120, (6S,9S,12S,15S,18R,19R)-9-(aminomethyl)-12-cyclohexyl-19-hexyl-15-isobutyl-16-methyl-18-(o-tolylinethyl)-6-[(1S)-1-hydroxyethyl]-1-oxa-4,7,10,13,16-pentazacyclononadecane-2,5,8,11,14,17-hexone] had an MIC (ATCC 700928, 22 h) of 3.1 µM (≈ 2.39 µg/mL).

As for `CCCCCC[C@H]1OC(=O)CNC(=O)[C@H]([C@H](C)O)NC(=O)[C@H](CN)NC(=O)[C@H](C2CCCCC2)NC(=O)[C@H](CC(C)C)N(C)C(=O)[C@@H]1Cc1ccc(C(F)(F)F)cc1` [Example 121, (6S,9S,12S,15S,18R,19R)-9-(aminomethyl)-12-cyclohexyl-19-hexyl-15-isobutyl-16-methyl-6-[(1S)-1-hydroxyethyl]-18-[[4-(trifluoromethyl)phenyl]methyl]-1-oxa-4,7,10,13,16-pentazacyclononadecane-2,5,8,11,14,17-hexone], where the note is “ATCC 700928, 22 h”, the MIC turned out to be 6.3 µM (≈ 5.2 µg/mL).

Where the note is “ATCC 700928, 22 h”, `CCC(F)CCC[C@H]1OC(=O)CNC(=O)[C@H]([C@H](C)O)NC(=O)[C@H](CN)NC(=O)[C@H]([C@H](C)CC)NC(=O)[C@H](CC(C)C)N(C)C(=O)[C@@H]1C` (stereo partly drawn) [Example 122, (6S,9S,12S,15S,18R,19R)-9-(aminomethyl)-19-(4-fluorohexyl)-15-isobutyl-16,18-dimethyl-6-[(1S)-1-hydroxyethyl]-12-[(1R)-1-methylpropyl]-1-oxa-4,7,10,13,16-pentazacyclononadecane-2,5,8,11,14,17-hexone] gave a minimum inhibitory concentration (MIC) of 25 µM (≈ 16.8 µg/mL).
